The values that follow come from patent US20240240126A1, “Microfluidic Barcode-Like Cell Sensor For Microscope-Free Quantitative Detection Of Small Amount Of Cells” (Hong Kong Baptist University, priority 2021, published 2024).

One experiment concerns Isolate 1. The experiment is described as follows: Broth microdilution AST of drinking water isolate. More on the design: key: R stands for resistant. The settings on record: Isolate 1 from drinking water samples. The format is cell-based, Staphylococcus epidermidis. As for the experimental part: (§1) All tested samples were collected between June 2019 to November 2019 according to the guidelines from ISO 18593:2018 Microbiology of the food chain—Horizontal methods for surface sampling. Also, all of the samples were collected from the drinking fountains in government venues and university facilities, at ten different locations. As said, the surface of the outlet for the drinking fountains was tested by swabbing. In simple words, the surfaces of the drinking fountain's outlet were rubbed by a single use sterilize cotton swab and swished into the Lysogeny broth (LB) broth solution for 1 minute to prepare the sample solutions. Collected samples were kept at 4° C. during the transportation and enriched for 12-14 hours under 37° C. After the enrichment for bacteria, the sample suspensions were spread and streaked onto the LB agar for further bacterial isolation and AST uses. […] If an ID is needed, dilution plating can be used. Besides, antifungals and algal inhibitors can also be added into these samples to against and inhibit the growth of fungi, yeast, and algae.
(§2) All tested samples were collected from drinking fountains at ten different locations in various government venues and university facilities. Sample containers were kept sterile before use in sample collection; the collected samples were kept at 4° C. and analyzed within 24 hours of collection. Sample collection was conducted 3 times for each sampling site and the antimicrobial susceptibility of each sample was tested 3 times. (FIG. 5) Bacterial identification for the real samples was made through the use of Matrix-Assisted Laser Desorption Ionization Time of Flight Imaging Mass Spectrometry (MALDI-TOF IMS). 1 uL of the sample was pipetted onto an Indium tin oxide (ITO) coated glass slide and allowed to dry on a hotplate; the ITO slide with bacteria was then analyzed by MALDI-TOF IMS immediately following matrix application. (FIG. 6, Table 2)
(§3) The broth microdilution (BMD) testing of the samples was performed exactly the same according to the approved standard from CLSI and the procedures described in Nature Protocol. To perform the BMD test, both LB broth medium and the antibiotics were added into the 96-wells microplate. By using a two-fold dilution, a concentration gradient of the antibiotic is generated from 128 μg/mL to 0.125 μg/mL. […] To assess the MIC values for the samples, the microplates were examined visually and the lowest concentration of the antibiotic which prevents visible growth of the bacteria was recorded as the MIC value of that sample. […]
In general terms: In broth dilution the organism is exposed to a series of concentrations in liquid medium.

The subject of a further experiment is Isolate 5. Put plainly: Broth microdilution AST of drinking water isolate. The format is cell-based, Staphylococcus epidermidis. The arrangement: key: R stands for resistant. The following applies: Isolate 5 from drinking water samples. Here is the method: as §1, §2, §3
The subject of the next experiment is Isolate 2. The experiment is described as follows: Broth microdilution AST of drinking water isolate. The arrangement: key: R stands for resistant. The format is cell-based, Citrobacter youngae. The settings on record: Isolate 2 from drinking water samples. Here is the method:
as §1, §2
(§4) The broth microdilution (BMD) testing of the samples was performed exactly the same according to the approved standard from CLSI and the procedures described in Nature Protocol. To perform the BMD test, both LB broth medium and the antibiotics were added into the 96-wells microplate. By using a two-fold dilution, a concentration gradient of the antibiotic is generated from 128 μg/mL to 0.125 μg/mL. The bacteria isolates identified inside the samples have been enriched under 37° C. for 8-12 hrs in order to achieve 5×10^6 CFU/mL before the test, 10 uL of the bacterial suspension was inoculated into the broth to achieve a final concentration of bacteria in 5×10^5 CFU/mL. The inoculated microplates were incubated at 37° C. for 16-20 hrs for further inspection. To assess the MIC values for the samples, the microplates were examined visually and the lowest concentration of the antibiotic which prevents visible growth of the bacteria was recorded as the MIC value of that sample. Meanwhile, Mueller Hinton broth was also used to perform the BMD for cross checking purpose; both of the AST results are consistence with the MIC quality control range recommended by CLSI.
(§5) Based on the findings in the present disclosure, multiple bacterial species have been recognized in the testing samples, including bacterial species that have the potential to form biofilm and colonize on the surface of the water dispenser (Table 2). Traditional broth microdilution AST was also performed to verify the AMR assessment results of the present sensor according to the approved standard from CLSI (FIGS. 27A and 27B, Table 4). […] As AMR microbes can exist in the environment all around us, close enough to come into contact with in daily life, they may pose a significant threat to the effective treatment of bacterial infections in the near future if no action is taken. […]

The test system of a further experiment is Isolate 6. Put plainly: Broth microdilution AST of drinking water isolate. The following applies: Isolate 6 from drinking water samples. More on the design: key: R stands for resistant. The format is cell-based, Citrobacter youngae. As for the experimental part:
as §1, §2, §4, §5

The test system of a further experiment is Isolate 7. Put plainly: Broth microdilution AST of drinking water isolate. The format is cell-based, Citrobacter youngae. The arrangement: key: R stands for resistant. The settings on record: Isolate 7 from drinking water samples. As for the experimental part:
as §1, §2, §4, §5

Another experiment has as its system Isolate 3. The experiment is described as follows: Broth microdilution AST of drinking water isolate. The format is cell-based, Staphylococcus capitis. More on the design: key: R stands for resistant. The following applies: Isolate 3 from drinking water samples. As for the experimental part:
as §1, §2, §4, §5

Another experiment deals with Isolate 4. Put plainly: Broth microdilution AST of drinking water isolate. The format is cell-based, Staphylococcus capitis. More on the design: key: R stands for resistant. The settings on record: Isolate 4 from drinking water samples. Here is the method:
as §1, §2, §4, §5

The subject of the next experiment is Isolate 8. Put plainly: Broth microdilution AST of drinking water isolate. The following applies: Isolate 8 from drinking water samples. More on the design: key: R stands for resistant. The format is cell-based, Staphylococcus capitis. As for the experimental part:
as §1, §2, §4, §5

The test system of the next experiment is mixed bacteria sample. The experiment is described as follows: Broth microdilution AST of mixed bacteria sample. The format is cell-based. As for the experimental part:
as §4
(§6) According to the AST results of the present disclosure, all those identified isolates (isolates 1-8) have shown susceptibility to Gentamicin where all of them are resistant to Ampicillin at the same time. […]

The test system of experiment [1] is identified isolates (isolates 1-8). The experiment is described as follows: AST of the identified drinking water isolates, overall statement. The format is cell-based. The following applies: all identified isolates 1-8. Here is the method:
as §4, §6

The test system of experiment [2] is E. coli. The settings on record: CLSI reference range; cited from earlier work.
In experiment [3] the test system is S. aureus. The following applies: CLSI reference range; cited from earlier work.
For experiment [4], the system named is E. coli. The experiment is described as follows: AST with the present barcode cell sensor (PP microfluidic AST chip). The format is cell-based, Escherichia coli (ATCC 25922). Here is the method: (§7) To conduct an AST on the PP-based AST chip, bacteria were pre-activated inside an incubator for 15 minutes at 37° C. before use. At the beginning of a test, the bacteria are injected through Inlet 3; the injection of the bacteria was monitored under the fluorescence microscope (FIG. 24A). After the bacteria were inoculated into the cultivation chambers, antibiotic-doped media and media alone are injected into inlet 1 and inlet 2 at a rate of 1 μL/minute, respectively (FIG. 24B). The AST chip was then incubated on a thermostat platform at 37° C. for 2 hours. To assess AMR, the bacteria inside the culture chambers of the PP AST chip were flushed into the barcode cell sensor at a rate of 1 μL/minute. […] For comparison, AST was also performed using the traditional broth microdilution method as shown in FIG. 27; the MIC values of the bacteria were assessed as the lowest concentration of antibiotics with no visible growth of bacteria.
As said, the bacteria samples have been flushed into the “barcode” cell sensor after 2 hours incubation, the accumulated bacteria bars with different lengths will be formed. […] Thus, the MIC value of the samples can be assessed by looking at the point (in a specific concentration of a given antibiotic) of the bacterial growth with significant differences using the comparison of the log [slope] values. […]

In experiment [5] the test system is S. aureus. The experiment is described as above. The format is cell-based, Staphylococcus aureus (ATCC 29213). As for the experimental part: To conduct an AST on the PP-based AST chip, bacteria were pre-activated inside an incubator for 15 minutes at 37° C. before use. At the beginning of a test, the bacteria are injected through Inlet 3; the injection of the bacteria was monitored under the fluorescence microscope (FIG. 24A). After the bacteria were inoculated into the cultivation chambers, antibiotic-doped media and media alone are injected into inlet 1 and inlet 2 at a rate of 1 μL/minute, respectively (FIG. 24B). The AST chip was then incubated on a thermostat platform at 37° C. for 2 hours. To assess AMR, the bacteria inside the culture chambers of the PP AST chip were flushed into the barcode cell sensor at a rate of 1 μL/minute. Gram staining agent was used during the flushing process to make bacteria inside the barcode cell sensor visible be captured by a cell phone camera. For comparison, AST was also performed using the traditional broth microdilution method as shown in FIG. 27; the MIC values of the bacteria were assessed as the lowest concentration of antibiotics with no visible growth of bacteria.

For experiment [6], the system named is E. coli. Put plainly: Broth microdilution AST. The format is cell-based, Escherichia coli (ATCC 25922). As for the experimental part:
as §7
(§8) The broth microdilution (BMD) testing of the samples was performed exactly the same according to the approved standard from CLSI and the procedures described in Nature Protocol. […] To assess the MIC values for the samples, the microplates were examined visually and the lowest concentration of the antibiotic which prevents visible growth of the bacteria was recorded as the MIC value of that sample.

For experiment [7], the system named is S. aureus. The experiment is described as follows: Broth microdilution AST. The format is cell-based, Staphylococcus aureus (ATCC 29213). As for the experimental part:
as §7, §8

In brackets after ≈: the same amount, converted by molar mass.

With `CC1(C)S[C@@H]2[C@H](NC(=O)[C@H](N)c3ccccc3)C(=O)N2[C@H]1C(=O)O` [Ampicillin], the “AST result (MIC)” value in the experiment on Isolate 1, in the experiment on Isolate 5, in the experiment with Isolate 2, in the experiment on Isolate 6, in the experiment with Isolate 7 and in the experiment with Isolate 3 was “R” throughout. Further, the “AST result (MIC)” value with Isolate 4 and with Isolate 8 was “R” each time. Further, in the experiment with mixed bacteria sample (FIG. 27B), the “AST result in words” value is on record as “resistance”. The “AST result in words (susceptibility / resistance)” value in [1] is recorded as “resistant”. For the same compound, the results for the MIC-CLSI in the experiment with E. coli [2] and in the experiment on S. aureus [3] were 2 to 8 µg/mL and 0.5 to 2 µg/mL, respectively.

Regarding `CC[C@H]1OC(=O)[C@H](C)[C@@H](O[C@H]2C[C@@](C)(OC)[C@@H](O)[C@H](C)O2)[C@H](C)[C@@H](O[C@@H]2O[C@H](C)C[C@H](N(C)C)[C@H]2O)[C@](C)(O)C[C@@H](C)C(=O)[C@H](C)[C@@H](O)[C@]1(C)O` [Erythromycin, erythromycin], the “MIC-"barcode" Chip” value against E. coli [4] is “Resistant”. Moreover, the MIC – broadly, the least concentration at which growth counts as inhibited – against S. aureus [5] (Staphylococcus aureus) lay in the range of 0.4 to 0.6 µg/mL (≈ 0.545 to 0.818 µM); against S. aureus [7] (Staphylococcus aureus), 0.25 to 1 µg/mL (≈ 0.341 to 1.36 µM). For the same compound, the “MIC-Broth Microdilution” value against E. coli [6] was “Resistant”. The results for the MIC-CLSI entry in the experiment with E. coli [2] and in the experiment on S. aureus [3] were “Resistant” and 0.25 to 1 µg/mL, respectively.

Consider Gentamicin, for which the “MIC-"barcode" Chip” value against S. aureus [5] lay within 0.25 to 0.5 µg/mL. Further, the “MIC-Broth Microdilution” value with E. coli [6] and in the experiment with S. aureus [7] was 0.25 to 0.5 µg/mL each time. Also, the “AST result (MIC)” value in the experiment with Isolate 1 is 4 µg/mL; in the experiment on Isolate 5 it was 4 µg/mL; in the experiment on Isolate 2, 16 µg/mL; with Isolate 6 it was 2 to 4 µg/mL; with Isolate 7 it was 16 to 32 µg/mL; in the experiment with Isolate 3 it was 16 µg/mL. Moreover, the “AST result (MIC)” value in the experiment on Isolate 4 and in the experiment with Isolate 8 was 16 to 32 µg/mL in each case. The same compound yielded an MIC value in the experiment with mixed bacteria sample (FIG. 27A) of 4 to 8 µg/mL. In addition, the “AST result in words (susceptibility / resistance)” value in experiment [1] is listed as “susceptibility”. Further, the values for the MIC-CLSI in the experiment with E. coli [2] and with S. aureus [3] were 0.25 to 1 µg/mL and 0.12 to 1 µg/mL, respectively.
